{"source": "patent US20160220710A1", "about": "“COMPOSITIONS AND METHODS FOR DELIVERING PHARMACEUTICAL AGENTS” (THE REGENTS OF THE UNIVERSITY OF MICHIGAN, priority 2015, published 2016)", "key": {"[1]": {"system": "alveolar macrophages (CD11c) and neutrophils (Ly6G)", "test": "Flow cytometry of alveolar exudate of drug fed mice", "assay_type": "in vivo", "settings": "8 weeks", "description": "Mice (4 week old, male C57Bl6) were purchased from the Jackson Laboratory (Bar Harbor, Me.) and acclimatized for 1 week in a specific-pathogen-free animal facility. Animal care was provided by the University of Michigan's Unit for Laboratory Animal Medicine (ULAM) and the experimental protocol was approved by the Committee on Use and Care of Animals in accordance with NIH guidelines. An oral diet containing CFZ was fed to mice as previously described (Baik J, et al., Antimicrob. Agents Chemother. 2013; 57:1218-30; Baik J, et al., PLoS One 2012; 7:e47494; Keswani R K, et al., Mol. Pharm. 2015:10). […]\nMice were euthanized as described above and the trachea was surgically exposed and cannulated with an 18G luer stub and the lungs were lavaged to obtain alveolar exudate by instilling calcium- and magnesium-free Dulbecco's PBS (DPBS) containing 0.5 mM EDTA in 1-ml aliquots for a total of 6 ml. […] Viable (using Trypan Blue staining method) and CLDI containing cells were counted using a hemocytometer.\nPeritoneal and alveolar lavage was performed as stated before to obtain the respective exudates. […] For CLDI fluorescence signal experiments, cells were pelleted by centrifugation (100×g for 5 min) followed by resuspension in PBS+5% FBS (500 μl). […] These cells also had extremely high side-scatter that were measured as saturated signals. […]"}, "[2]": {"system": "RAW 264.7 cells", "test": "MitoTracker Red live cell staining (mitochondrial membrane potential)", "assay_type": "cell-based, murine", "settings": "10 μM", "description": "Cells were cultured with CFZ or CLDI media for 24 h in chamber slides (Lab Tek) and stained with 150 nM of MitoTracker Red CMXRos (MTR, Life Technologies) in fresh media for 45 min, and then NucBlue Live Cell Stain (Life Technologies) was applied for 10 min for nuclear staining. After incubation, extracellular MTR and NucBlue were washed twice with DPBS and the cells were visualized on a Nikon Eclipse Ti fluorescence microscope (Japan) using Texas Red (Mitotracker) and DAPI (NucBlue) filters. Real-time live cell images were captured every 10 sec for 30 min with the same microscope and video was created using the Nikon Elements software. For confocal imaging of intracellular CLDIs, FM 1-43 (Life Technologies) was used at 3.5 μM (15 min at 37° C.) for membrane staining followed by NucBlue (10 min). After washing with DPBS, cells were visualized using laser-scanning confocal microscopy (Olympus Fluoview 500) fitted with argon (FITC) and HeNe Red lasers (Cy5). Images were taken along the z-axis with a 60× objective at 0.25 μm intervals and the composite Z-stack images were created using the Nikon Elements software."}, "[3]": {"system": "IL-1RA, TNFα, IL-1β", "test": "Serum cytokines of CFZ-treated mice", "assay_type": "in vivo", "description": "Clofazimine (CFZ, Sigma-Aldrich, C8895) was prepared in sesame oil (Shirakiku, Japan, or Roland, China) and Powdered Lab Diet 5001 (PMI International, Inc., St. Louis, Mo.) and orally administrated to Wild-type (WT) C57BL/6 mice or IL-1RA^−/− (4-5 week old, Jackson Laboratory, Bar Harbor, Me.) for up to 8 weeks ad libitum as previously described (Baik et al., 2013, supra; Baik et al., 2011, supra). Control mice were fed with the same diet without CFZ. The animal protocol was approved by the University of Michigan's Animal Care and Use Committee in accordance with the National Institutes of Health guidelines (UCUCA #PRO0005111).\nMouse Bronchoalveolar Lavage (BAL) Harvest and Isolation of Alveolar Macrophages, Immunohistochemistry and Imaging, SDS-PAGE and Western Blot, Cytokine Measurements"}, "[4]": {"settings": "cited from earlier work"}}, "note": "Read-outs that look alike come from different tables or passages of the source."}
{"smiles": "CC(C)/N=c1\\cc2n(-c3ccc(Cl)cc3)c3ccccc3nc-2cc1Nc1ccc(Cl)cc1", "note": "[CFZ, 3-(p-chloroanilino)-10-(p-chlorophenyl)-2, 10-dihydro-2-isopropyliminophenazine]", "values": [{"measurement": "% of CLDI(+) cells that are CD11c(+)", "setting": "[1]", "value": "> 99", "unit": "%"}, {"measurement": "% of Ly6G(+) cells detected as CLDI+", "setting": "[1]", "value": "< 2", "unit": "%"}, {"measurement": "mitochondrial membrane potential (Mitotracker Red staining)", "setting": "[2]", "value": "diffuse cytoplasmic MTR staining, indicative of mitochondrial membrane depolarization"}, {"measurement": "nuclear MTR signal vs untreated cells", "setting": "[2]", "value": 4, "unit": "fold"}, {"measurement": "serum IL-1RA levels", "setting": "[3]; 8 weeks", "value": "increase in serum IL-1RA levels"}, {"measurement": "TNFα or IL-1β in the serum", "setting": "[3]; all conditions", "value": "not possible to detect"}, {"measurement": "half-life", "setting": "[4]; after an acute dose, oral", "value": "in the order of hours to days"}, {"measurement": "half-life", "setting": "[4]; upon prolonged oral administration", "value": "in the order of weeks to months"}]}
